# Reference: the supplement of paper PMC10307832
# Assays:
# Assay in all cases: relative viability (nuclei count vs DMSO), 5 days (fraction); higher = more cells survive
# LCLC-97TM1 = tested on: LCLC-97TM1
# Outline: (§1)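 Relative viability is defined as nuclei in treated wells over nuclei in vehicle wells. Duplicate plates were run and medians reported. Lung cancer cell lines in 1536-well plates were dosed by pin tool one day after seeding, with one drug or with a fixed anchor-drug dose plus five library-drug doses (not always all listed) in √10 steps, and nuclei were counted after 5 days.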
# NCI-H1355 = tested on: NCI-H1355
# Outline: as §1
# NCI-H1648 = tested on: NCI-H1648
# Outline: as §1
# NCI-H1993 = tested on: NCI-H1993
# Outline: as §1
# NCI-H23 = tested on: NCI-H23
# Outline: as §1
# NCI-H322M = tested on: NCI-H322M
# Outline: as §1
# NCI-H596 = tested on: NCI-H596
# Outline: as §1
# UMC-11 = tested on: UMC-11
# Outline: as §1
structure (smiles),measurement,setting,value
COc1nc(C)cnc1NS(=O)(=O)c1cccnc1-c1ccc(-c2nnco2)cc1 [Zibotentan] + Nc1nc2[nH]cc(CCc3ccc(C(=O)N[C@@H](CCC(=O)O)C(=O)O)cc3)c2c(=O)[nH]1 [Pemetrexed] (partner 0.2 µM),relative viability,LCLC-97TM1; first compound 0.08 µM,0.192
same,relative viability,LCLC-97TM1; first compound 0.253 µM,0.181
same,relative viability,LCLC-97TM1; first compound 0.8 µM,0.154
same,relative viability,LCLC-97TM1; first compound 2.53 µM,0.175
same,relative viability,NCI-H1355; first compound 0.08 µM,1.04
same,relative viability,NCI-H1355; first compound 0.253 µM,1.05
same,relative viability,NCI-H1355; first compound 0.8 µM,1.03
same,relative viability,NCI-H1355; first compound 2.53 µM,1.07
same,relative viability,NCI-H1648; first compound 0.08 µM,0.791
same,relative viability,NCI-H1648; first compound 0.253 µM,0.686
same,relative viability,NCI-H1648; first compound 0.8 µM,0.532
same,relative viability,NCI-H1648; first compound 2.53 µM,0.635
same,relative viability,NCI-H1993; first compound 0.08 µM,0.695
same,relative viability,NCI-H1993; first compound 0.253 µM,0.557
same,relative viability,NCI-H1993; first compound 0.8 µM,0.557
same,relative viability,NCI-H1993; first compound 2.53 µM,0.545
same,relative viability,NCI-H23; first compound 0.08 µM,0.738
same,relative viability,NCI-H23; first compound 0.253 µM,0.395
same,relative viability,NCI-H23; first compound 0.8 µM,0.456
same,relative viability,NCI-H23; first compound 2.53 µM,0.915
same,relative viability,NCI-H322M; first compound 0.08 µM,0.661
same,relative viability,NCI-H322M; first compound 0.253 µM,0.553
same,relative viability,NCI-H322M; first compound 0.8 µM,0.526
same,relative viability,NCI-H322M; first compound 2.53 µM,0.65
same,relative viability,NCI-H596; first compound 0.08 µM,0.455
same,relative viability,NCI-H596; first compound 0.253 µM,0.429
same,relative viability,NCI-H596; first compound 0.8 µM,0.522
same,relative viability,NCI-H596; first compound 2.53 µM,0.501
same,relative viability,UMC-11; first compound 0.08 µM,0.671
same,relative viability,UMC-11; first compound 0.253 µM,0.727
same,relative viability,UMC-11; first compound 0.8 µM,0.742
same,relative viability,UMC-11; first compound 2.53 µM,0.859
O=c1cc(N2CCOCC2)oc2c(-c3cccc4c3sc3ccccc34)cccc12 + CC(=O)Nc1cccc(-n2c(=O)n(C3CC3)c(=O)c3c(Nc4ccc(I)cc4F)n(C)c(=O)c(C)c32)c1 [Trametinib] (partner 0.02 µM),relative viability,LCLC-97TM1; first compound 0.01 µM,0.197
same,relative viability,LCLC-97TM1; first compound 0.03162 µM,0.161
same,relative viability,LCLC-97TM1; first compound 0.1 µM,0.173
same,relative viability,LCLC-97TM1; first compound 0.3162 µM,0.173
same,relative viability,LCLC-97TM1; first compound 1 µM,0.193
same,relative viability,NCI-H1355; first compound 0.01 µM,0.435
same,relative viability,NCI-H1355; first compound 0.03162 µM,0.435
same,relative viability,NCI-H1355; first compound 0.1 µM,0.435
same,relative viability,NCI-H1355; first compound 0.3162 µM,0.409
same,relative viability,NCI-H1355; first compound 1 µM,0.399
same,relative viability,NCI-H1648; first compound 0.03162 µM,0.471
same,relative viability,NCI-H1648; first compound 0.1 µM,0.5
same,relative viability,NCI-H1648; first compound 0.3162 µM,0.446
same,relative viability,NCI-H1648; first compound 1 µM,0.483
same,relative viability,NCI-H1993; first compound 0.01 µM,0.507
same,relative viability,NCI-H1993; first compound 0.03162 µM,0.601
same,relative viability,NCI-H1993; first compound 0.1 µM,0.507
same,relative viability,NCI-H1993; first compound 0.3162 µM,0.407
same,relative viability,NCI-H1993; first compound 1 µM,0.516
same,relative viability,NCI-H23; first compound 0.01 µM,0.351
same,relative viability,NCI-H23; first compound 0.03162 µM,0.375
same,relative viability,NCI-H23; first compound 0.3162 µM,0.359
same,relative viability,NCI-H23; first compound 1 µM,0.347
same,relative viability,NCI-H322M; first compound 0.01 µM,0.494
same,relative viability,NCI-H322M; first compound 0.03162 µM,0.486
same,relative viability,NCI-H322M; first compound 0.3162 µM,0.495
same,relative viability,NCI-H322M; first compound 1 µM,0.494
same,relative viability,NCI-H596; first compound 0.01 µM,0.758
same,relative viability,NCI-H596; first compound 0.03162 µM,0.866
same,relative viability,NCI-H596; first compound 0.1 µM,0.831
same,relative viability,NCI-H596; first compound 0.3162 µM,0.711
same,relative viability,NCI-H596; first compound 1 µM,0.717
same,relative viability,UMC-11; first compound 0.01 µM,0.734
same,relative viability,UMC-11; first compound 0.03162 µM,0.741
same,relative viability,UMC-11; first compound 0.1 µM,0.773
same,relative viability,UMC-11; first compound 0.3162 µM,0.756
same,relative viability,UMC-11; first compound 1 µM,0.832
CCN(CC)CCCCNc1ncc2cc(-c3cc(OC)cc(OC)c3)c(NC(=O)NC(C)(C)C)nc2n1 + CC(=O)Nc1cccc(-n2c(=O)n(C3CC3)c(=O)c3c(Nc4ccc(I)cc4F)n(C)c(=O)c(C)c32)c1 [Trametinib] (partner 0.02 µM),relative viability,LCLC-97TM1; first compound 0.01 µM,0.161
same,relative viability,LCLC-97TM1; first compound 0.03162 µM,0.189
same,relative viability,LCLC-97TM1; first compound 0.1 µM,0.216
same,relative viability,LCLC-97TM1; first compound 0.3162 µM,0.168
same,relative viability,LCLC-97TM1; first compound 1 µM,0.185
same,relative viability,NCI-H1355; first compound 0.01 µM,0.462
same,relative viability,NCI-H1355; first compound 0.03162 µM,0.436
same,relative viability,NCI-H1355; first compound 0.1 µM,0.479
same,relative viability,NCI-H1355; first compound 0.3162 µM,0.502
same,relative viability,NCI-H1355; first compound 1 µM,0.382
same,relative viability,NCI-H1648; first compound 0.01 µM,0.368
same,relative viability,NCI-H1648; first compound 0.03162 µM,0.49
same,relative viability,NCI-H1648; first compound 0.1 µM,0.396
same,relative viability,NCI-H1648; first compound 0.3162 µM,0.46
same,relative viability,NCI-H1648; first compound 1 µM,0.367
same,relative viability,NCI-H1993; first compound 0.01 µM,0.567
same,relative viability,NCI-H1993; first compound 0.03162 µM,0.5
same,relative viability,NCI-H1993; first compound 0.1 µM,0.53
same,relative viability,NCI-H1993; first compound 0.3162 µM,0.557
same,relative viability,NCI-H1993; first compound 1 µM,0.0258
same,relative viability,NCI-H23; first compound 0.01 µM,0.321
same,relative viability,NCI-H23; first compound 0.03162 µM,0.341
same,relative viability,NCI-H23; first compound 0.1 µM,0.432
same,relative viability,NCI-H23; first compound 0.3162 µM,0.4
same,relative viability,NCI-H23; first compound 1 µM,0.319
same,relative viability,NCI-H322M; first compound 0.01 µM,0.514
same,relative viability,NCI-H322M; first compound 0.03162 µM,0.49
same,relative viability,NCI-H322M; first compound 0.1 µM,0.436
same,relative viability,NCI-H322M; first compound 0.3162 µM,0.339
same,relative viability,NCI-H322M; first compound 1 µM,0.488
same,relative viability,NCI-H596; first compound 0.01 µM,0.865
same,relative viability,NCI-H596; first compound 0.03162 µM,0.879
same,relative viability,NCI-H596; first compound 0.1 µM,0.677
same,relative viability,NCI-H596; first compound 0.3162 µM,0.778
same,relative viability,NCI-H596; first compound 1 µM,0.646
same,relative viability,UMC-11; first compound 0.01 µM,0.686
same,relative viability,UMC-11; first compound 0.03162 µM,0.483
same,relative viability,UMC-11; first compound 0.1 µM,0.593
same,relative viability,UMC-11; first compound 0.3162 µM,0.764
same,relative viability,UMC-11; first compound 1 µM,0.695
